In US6288110A, “Pharmaceutical compositions comprising disulfiram” (Yeda Research and Development Co Ltd., priority 1998, dated 2001):

Legend:
superoxide dismutase = settings: in vivo; cited from earlier work
C6 glioma cells = assay: Cell rounding, C6 glioma cells; format: cell-based, rat; settings: 2 μM
[1] = tested on: tumor progression from papilloma to squamous cell carcinoma; settings: murine skin multistage carcinogenesis model; cited from earlier work
other tissues = assay: Tissue damage on systemic administration; settings: 25-60 μg/mouse systemically
Meth A tumor cell = settings: together with ascorbic acid, in vitro; cited from earlier work
C6 rat glioma tumor = assay: Growth of C6 glioma tumors in nude mice; format: in vivo, CD1 nude male mice; C6 rat glioma cells; settings: 30 days; for Tumor weight / % inhibition (tumor growth): per os 3 times per week; for Tumor weight: n=8, mean ± SEM, control 1.37 ± 0.21
Description: (§1) C6 rat glioma cells (10^6) were injected subcutaneously into the back of the neck of CD1 nude male mice. After 3 days, 1 ml of aqueous solutions with or without 0.1-0.5 mM disulfiram (25-120 μg) was introduced per os to the mice using a feeding needle. Mice were orally fed three times per week. Tumors were removed 30 days following C6 cells injection, weighed, fixed in buffered formalin and histological sections were prepared. Each experimental group included 8 animals, and experiments were repeated twice.
Tumors from mice fed systemically 3 times a week with disulfiram were weighed 30 days following administration of C6 rat glioma cells to CD1 nude mice. […] Experiments were repeated twice (n=8).

[2] = tested on: neoplasia of the large bowl; settings: 1,2-dimethylhydrazine; cited from earlier work
[3] = tested on: neoplasia of the forestomach; settings: benzo(a)pyrene, mice; cited from earlier work
[4] = tested on: neovascularization induced by bFGF; assay: Subcutaneous angiogenesis in nude mice (bFGF agarose bead), disulfiram per os; format: in vivo, CD1 nude male mice
Description: FIGS. 1A-1C show inhibition of neovascularization in nude mice by disulfiram (D). […] Bar is one mm.
Spherical agarose beads of approximately 1 mm in diameter were formed from 4% low gelling temperature agarose (Sigma) in PBS containing b-FGF or HB-EGF as angiogenic agent. The candidate angiogenic agent (10 μg/bead) was warmed in sterile microtest tubes to 40° C. in a dry-bath for a few seconds. 10 μl of agarose solution (6% in saline, 45° C.) were then added to 5 μl of the angiogenic compound and beads were formed above ice using a 20 μl pipette tip. Beads were implanted subcutaneously 1 cm away from the incision-site as reported previously for multicellular spheroids (Abramovitch, 1995) in mice anesthetized with a single dose of 75 mg/kg ketamine+3 mg/kg xylazine (i.p.). Experiments were carried out for 4 days in CD1 nude male mice. Each day one ml of aqueous solutions with or without 0.1-0.25 mM (25-60 μg) disulfiram was introduced per os to the mice using a feeding needle. Treatment was for three days starting from the day of bead implantation until one day before termination. Experiments were done in quadruplicates and repeated three times.
Agarose beads containing the angiogenic factor bFGF (10 μg/bead) were implanted subcutaneously into CD1 nude mice as described in section (d) of "Materials and Methods" above. […]

[5] = tested on: kidney, liver, stomach, lungs and spleen; assay: Pathological and histological examination of tissues of treated animals; format: in vivo, mice
Description: as §1
Since disulfiram inhibits angiogenesis both in vivo in mice and in vitro in C6 glioma cells, it can be assumed that tumor growth inhibition observed for disulfiram is the result of its dual action, one on the neovascularization of the tumor and one on the C6 glioma cells. […] Blood vessels examined in these tissues were also not affected.

[6] = tested on: Lewis lung (D122) metastasis in the lungs; assay: Lewis lung carcinoma metastasis, i.v. model; format: in vivo, C57/BL mice
Source text: (§2) The Lewis lung carcinoma (3LL), which originated spontaneously in a C57/BL/6J (H-2^b) mouse, is a malignant tumor that produces spontaneous lung metastases. The metastatic clone D122, kindly provided by Prof. Lea Eisenbach (Weizmann Institute of Science, Rehovot, Israel), was used herein for tissue culture and for in vivo experiments. The cell cultures were maintained in DMEM supplemented with 10% heat-inactivated FCS, glutamine, antibiotics, sodium pyruvate and nonessential amino acids.
To distinguish between the effect on the migration of the cells from the main tumor and the development of a tumor from a metastatic foci, the i.v. model was used. D122 cells (5×10^5) were injected i.v. to the tail of C57/B1 male mice and after 24 days mice were killed and their lungs weighed. Treatment with disulfiram was started 3 days following the injection of D122 cells. […]
To distinguish between the effect on the migration of the cells from the main tumor and the development of a tumor from a metastatic foci, the i.v. metastastis model was used as described in section (f) of materials and Methods above. D122 cells were injected i.v. to the tail of C57/B1 male mice. Three days after, disulfiram was administered to the mice per os 3 times per week, at concentrations of 13-40 μg/mouse.

[7] = in vivo; cited from earlier work
[8] = tested on: metabolism of the carcinogen azomethane; settings: cited from earlier work
[9] = tested on: Lewis lung carcinoma (D122) metastasis in the lungs; assay: Lewis lung carcinoma metastasis, footpad model; format: in vivo, C57/BL mice
Source text: as §2
Two metastasis models were used: 1. The footpad model. 2. The i.v. model. The assay of tumor development in the footpad model and evaluation of lung metastases was done as previously described (Eisenbach, 1983). Briefly, eight mice in each experimental group were inoculated with 2×10^5 D122 cells in 0.05 ml PBS in the right hind footpad. Three days following tumor cells injection, mice were treated per os by disulfiram or saline 3 times per week. The tumors became palpable within 11-19 days. Local tumor growth was determined by measuring the footpad diameter with a calipers. At 26-40 days following inoculation, when local tumor reached a diameter of 6-7 mm, mice were anesthetized with a single dose of 75 mg/kg ketamine+3 mg/kg xylazine (i.p.) and the tumor-bearing leg was removed by amputation above the knee joint. To measure progress of metatases the mice were killed 24 days following amputation by injecting 20 mg/mouse xylazine i.p. and lungs were weighed.
Twenty-four days following the removal of the tumor-bearing leg, lungs were weighed.

Compound: CCN(CC)C(=S)SSC(=S)N(CC)CC [disulfiram, Bis(diethylthiocarbamoyl) disulfide]
- inhibition of superoxide dismutase (superoxide dismutase): inhibited superoxide dismutase
- cell rounding (C6 glioma cells): did not change their shape to the rounded form
- inhibition of tumor progression [1]: inhibit tumor progression
- damage in other tissues (other tissues): no evidence for damage in other tissues
- inhibition of Meth A tumor cell proliferation (Meth A tumor cell): augmented inhibition
- Tumor weight (C6 rat glioma tumor; 25 μg, p = 0.003): 0.59 ± 0.08 g
- % inhibition (tumor growth) (C6 rat glioma tumor; 25 μg/mouse, p = 0.003): 57%
- Tumor weight (C6 rat glioma tumor; 120 μg, p < 0.05): 0.84 ± 0.18 g
- % inhibition (tumor growth) (C6 rat glioma tumor; 120 μg/mouse, p < 0.05): 38%
- tumor size compared with water-fed control (in words) (C6 rat glioma tumor; fed 3 times a week, n=8): significantly smaller
- interference with neoplasia of the large bowl [2]: interfere with induction of cancer
- interference with neoplasia of the forestomach [3]: interfere with induction of cancer
- inhibition of neovascularization induced by bFGF inside and around the bead ([4]; 60 μg/mouse systemically, 4 days after implantation): inhibited almost completely
- angiogenesis around the beads containing bFGF ([4]; 25-60 μg/mouse/day per os, 3 days (1 ml of 0.1-0.25 mM)): clearly inhibited
- effect on blood vessels in tissues [5]: not affected
- pathological effect on tissues [5]: no effect on these tissues
- metastasis in the lungs compared with water-fed control (in words) ([6]; 13-40 μg, 3 times a week, 24 days, n=6, p=0.023-0.037): significantly smaller
- inhibition of the development of metastatic foci in the lungs ([6]; 13-40 μg/mouse per os 3 times per week): 83-95%
- decrease of metastasis to the lungs ([6]; 13-40 μg/mouse, 3 times a week, 24 days): 6-19 fold
- conversion into main metabolite diethyldithiocarbamate (DDC) [7]: quickly converted
- inhibition of azomethane metabolism [8]: inhibited the metabolism
- metastasis on the lungs compared with water-fed control (in words) ([9]; 30 μg, 3 times a week, 24 days, n=6, p=0.005): significantly smaller
- lowering of the metastatic load in the lungs ([9]; 30 μg/mouse, 24 days following removal of tumor-bearing leg): ~10 fold
- decrease in the metastatic load in the lungs (in words) ([9]; 120 μg/mouse (not shown)): only slight decrease
- deaths of disulfiram-treated mice ([9]; by 24th day following leg removal, control 50% died): no disulfiram-treated mice died
- mice with no metastases at all ([9]; disulfiram-treated group): two out of six
